Test [1] relates to HCC827 GR cells. The test is described as follows: MTS survival assay, gefitinib-resistant HCC827 GR cells. Particulars: HCC827 GR cell lines / GR5; single drugs or combination. On the technique in general: Formazan colour is commonly taken as a measure of viable cells.
Method: This assay, a colorimetric method for determining the number of viable cells, is based on the bioreduction of 3-(4,5-dimethylthiazol-2-yl)-5-(3-carboxymethoxyphenyl)-2-(4-sulfophenyl)-2H-tetrazolium (MTS) by cells to a formazan product that is soluble in cell culture medium, can be detected spectrophotometrically and was performed according to previously established methods (3, 31, 10).
All experimental points were set up in six to twelve wells and all experiments were repeated at least three times. […] The curves were fitted using a non-linear regression model with a sigmoidal dose response.
The test system of test [2] is EGFR mutant HCC827 cells and ERBB2 amplified BT474 cells. In words: p85 immunoprecipitation and Western blot in control cell lines HCC827 and BT474. It counts as cell-based. Particulars: 1 μM, 6 hours (FIG. 3A). Background: A western blot detects proteins with antibodies after separation by electrophoresis.
For test [3], the system named is CHO cells co-expressing MET and ERBB3. Particulars: PHA-665,752 1 μM.
Method: Lysates were immunoprecipitated with anti-p85 antibodies and the immunoprecipitates were probed with anti-phospho-tyrosine, anti-ERBB-3 and anti-p85 antibodies (* indicates ERBB3 on the PTyr blot). In parallel, the lysates were analyzed by Western blotting and probed with the indicated antibodies. […] Lentiviral shRNA constructs containing a scrambled (SC) sequence, ERBB3 specific sequence, a control sequence (CTRL) or GFP were infected into SNU638 cells (Methods). Seventy-two hours following infection, the cells were lysed and probed with indicated antibodies. […] C. […] Growth of SNU-638 cells was assayed by an MTS assay 5 days following infection of shRNA constructs in B. Growth is normalized to the SC shRNA. […] The resulting proteins were lysed and probed with the indicated antibodies. […] The resulting lysates were probed with either ERBB3 or MET.
Test [4] concerns H1993 NSCLC cells, SNU638 and MKN45 gastric cancer cells. In words: p85 immunoprecipitation and Western blot in MET amplified cell lines. Particulars: 1 μM, 6 hours (FIG. 3A).
Method: Lysates were immunoprecipitated with anti-p85 antibodies and the immunoprecipitates were probed with anti-phospho-tyrosine, anti-ERBB-3 and anti-p85 antibodies (* indicates ERBB3 on the PTyr blot). In parallel, the lysates were analyzed by Western blotting and probed with the indicated antibodies.
Cells grown under the previously specified conditions were lysed in the following lysis buffer: 20 mM Tris, pH 7.4/150 mM NaCl/1% Nonidet P-40/10% glycerol/1 mM EDTA/1 mM EGTA/5 mM sodium pyrophosphate/50 mM NaF/10 nM (3-glycerophosphate/1 mM sodium vanadate/0.5 mM DTT/4 μg/ml leupeptin/4 μg/ml pepstatin/4 μg/ml apoprotein/1 mM PMSF. After cell lysis, lysates were centrifuged at 16,000×g for 5 min at 4° C. The supernatant was used for subsequent procedures. Western blot analyses were conducted after separation by SDS/PAGE electrophoresis and transfer to nitrocellulose membranes. Immunoblotting was performed according to the antibody manufacturers' recommendations. Antibody binding was detected using an enhanced chemiluminescence system (New England Nuclear Life Science Products Inc.).
Anti-ErbB-3 antibody was obtained from Lab Vision. […] The total Met (C-28) antibody was purchased from Santa Cruz Biotechnology (Santa Cruz, Calif.).
Test [5] relates to ERBB3 and Gab1 association with p85 in HCC827 GR cells. The test is described as follows: anti-p85 immunoprecipitation in HCC827 GR cells. It counts as cell-based. Particulars: 1 μM each drug, 6 hours (FIG. 2C).
Test [6] deals with HCC827 GR cells. The test is described as follows: Western blot of EGFR/ERBB3/PI3K/Akt signaling in HCC827 GR cells. It counts as cell-based. The following applies: 1 μM each drug, 6 hours (FIG. 2B).
In test [7] the test system is HCC827 cells. In words: crystal violet staining of viable HCC827 cells, gefitinib and HGF. It counts as cell-based. The following applies: 10 days, gefitinib 1 uM, HGF 50, 10 or 2 ng/ml (FIG. 10 bottom). On the procedure: […] cells were seeded in a 10 cm petri dish and treated with the indicated conditions for 10 days. Gefitnib was used at 1 uM, and HGF was used at 50, 10, or 2 ng/ml. The plates were then stained with crystal violet to visualize viable cells.

Test [8] concerns HCC827 cells. The test is described as follows: MTS survival assay of HCC827 cells with HGF in the presence of gefitinib. It counts as cell-based. The following applies: 50 ng/ml of HGF (FIG. 10 top left). An excerpt: MET activity was induced by treating HCC827 cells with its ligand, HGF (hepatocyte growth factor).
Test [9] deals with HCC827 cells. In words: Western blot of AKT phosphorylation in HCC827 treated with gefitinib and HGF. It counts as cell-based. The following applies: gefitinib alone or with HGF, 6 hours (FIG. 10 top right).

As to `CC#CC(=O)Nc1ccc2ncnc(Nc3cccc(Br)c3)c2c1` [CL-387,785], in the test with HCC827 GR cells [1], the “growth of HCC827 GR cells under drug (MTS)” value is “did not suppress the growth”.
For `Cc1[nH]c(/C=C2\C(=O)Nc3ccc(S(=O)(=O)Cc4c(Cl)cccc4Cl)cc32)c(C)c1C(=O)N1CCC[C@@H]1CN1CCCC1` [PHA-665,752], in test [2], the PI3K signaling result is “has no effect on PI3K signaling”. For the same compound, in test [3] (CHO co-expressing MET and ERBB3, gefitinib 3 mM (so in the source), lapatinib 3 μM, PP2 10 μM, 6 hours (FIG. 3D)), the ERBB3 phosphorylation result is “blocked”. In addition, the “p85 co-precipitation with ERBB3” value in test [3] (CHO transfected with MET and ERBB3, gefitinib 3 μM, lapatinib 3 μM (FIG. 3E)) is “inhibited”. In addition, the results for the “ERBB3 and Akt phosphorylation” value (in [4]; with HCC827 GR cells [6]; in the test with HCC827 GR cells [6] (listed as PHA-665752)) were “only inhibited”, “minimal effect on P-Akt levels” and “no significant effect on p-ERBB3 or p-AKT”, respectively. Further, the “ERBB3 association with p85” value in test [4] is on record as “disrupted”. Also, the “growth of HCC827 GR cells under drug (MTS)” value in the test with HCC827 GR cells [1] is on record as “resistant”. Moreover, the “co-precipitation of ERBB3 and Gab1 with p85” value in test [5] is recorded as “blocks Gab-1 association with p85”.
As for “HGF: hepatocyte growth factor, ligand of MET”, the “viable cells (crystal violet)” value in the test with HCC827 cells [7] was “increases with increased concentrations”. Also, the “survival in the presence of gefitinib (MTS)” value in the test on HCC827 cells [8] is given as “markedly improved survival”. Further, the AKT phosphorylation entry with HCC827 cells [9] is reported as “at least partially reversed”.

Source of the values: patent US11008620B2, “Methods for treating cancer resistant to ErbB therapeutics” (Dana-Farber Cancer Institute, Inc., priority 2007, dated 2021).
